Measurements taken from article PMC11546719, “Immune Modulatory Profile of the Pateamines PatA and Des-Methyl Des-Amino PatA” (International Journal of Molecular Sciences, 2024).
Like-named read-outs stand apart in the source and are kept apart here.

Columns and labels:
[1] = test system: Human primary T cells; design: method as in PMID 36982945; conditions: summary table ref 11; cited from earlier work
[2] = test system: M2 MdMs; design: method as in PMID 36982945; conditions: summary table ref 11; cited from earlier work
[3] = test system: M1 MdMs; design: method as in PMID 36982945; conditions: summary table ref 11; cited from earlier work
[4] = test system: Human primary B cells; design: method as in PMID 36982945; conditions: summary table ref 11; cited from earlier work
[5] = test system: TK6 cells; assay: Micronuclei assay; format: cell-based, human; conditions: 4 h incubation then 44 h
Method: The In-Vitro Micronuclei Plus assay (Becton Dickinson, Heidelberg, Germany) was performed as described by the supplier. Briefly, 2 × 10^4 TK6 cells were incubated with increasing concentrations of PatA, DMDA and silvestrol for 4 h. The cells were washed with PBS and incubated in fresh medium (without test substance) for 44 h. The cells were centrifuged (300× g) for 5 min, the […] and placed on ice for 20 min. Then, 50 µL of Complete Nucleic Acid Dye A Solution was added. The plate was placed on ice and exposed to visible light for 30 min. The Nucleic Acid Dye A solution was removed and the cells were washed with 0.15 mL of cold 1x Buffer Solution. An amount of 100 µL Complete Lysis Solution 1 was added, followed by gently mixing of the plate for 5 s and incubation of 1 h in the dark at 37 °C. Then, 100 µL Complete Lysis Solution 2 was added and incubated for 30 min in the dark at room temperature. The cells were analyzed via flow cytometry with the MACSQuant 10 (Miltenyi GmbH, Bergisch Gladbach, Germany).

[6] = test system: Human primary B cells; assay: B cell activation with IL-21, sCD40L, CpG and anti-IgM; format: cell-based; conditions: activated B cells, 5 days
Method: B cells were activated as described by Khoenkhoen et al.. […].
Surface marker analysis was performed as described previously. Briefly, 1.5–2 × 10^5 cells of each sample were blocked with human FcR Blocking Reagent (15 min, 4 °C). […]. Afterwards, samples were stained with a mixture of different surface marker antibodies (15 min, 4 °C) and measured with MACSQuant® Analyzer 10 flow cytometer. For M1-/M2-MdMs anti-CD86, anti-CD14, anti-HLA-DR, anti-CD206, anti-CD80, anti-TREM2 and anti-CD163 were used. For T cells, anti-CD69, anti-CD54, anti-CD49a, anti-CD18, anti-CD134, anti-CD154, anti-CD3 and anti-CD25 were analyzed. For B cells, anti-CD27, anti-CD19 and anti-CD38 were applied. For T cell and B cell proliferation assay, freshly isolated T and B cells were stained with CTV and detected using flow cytometry. Naïve B cells were characterized as CD19^+CD27^lowCD38^med, memory B cells as CD19^+CD27^med CD38^low and plasma cells as CD27^+CD38^+ cells. M1 MdMs and M2 MdMs cell population was gated using FSC/SSC channel. T cells were gated as CD3^+CD25^+ positive cells. The geometric mean of the fluorescent intensity was calculated using FlowJo software v10 (Treestar, Ashland, […], USA). Fold induction of surface marker expression was calculated using the DMSO-treated cells as the control.
For determination of cytokine concentrations in the supernatant of humane immune cells, cytometric bead array (BD Biosciences, Heidelberg, Germany) for IL-10, IL-17, IL-8, IL-6, IFN-γ and CCL2 was used. For the detection of CCL18, CCL17, IgG, IgA and PGE2, an ELISA was performed. The cytometric bead arrays and the ELISAs were performed according to the protocol of the supplier.

[7] = test system: Calu-3 cell barrier; assay: Transport assay, Calu-3 cell barrier; format: in vitro ADME
Method: (§1) The transport assay was achieved as described previously. Briefly, 1 × 10^5 CaCo-2 or 5 × 10^4 Calu-3 cells in 300 µL medium were seeded on 24-well ThinCerts (pre-coated with FCS for 60 min) and in the lower compartment, 1 mL culture medium per well was added. The Caco-2 cell barrier was generated over 20 days and the Calu-3 barrier was generated over 14 days. DMDA (0 nM, 5 nM, 50 nM, 100 nM), PatA (0 nM, 5 nM, 50 nM, 100 nM), 200 µM famotidine, 200 µM lucifer yellow or 200 µM carbamazepine diluted in medium was added to the apical compartment and incubated for 4 h or 24 h. The medium from the basolateral and apical compartment was collected and stored at −20 °C and analyzed using LC-MS/MS. To obtain the transport rate, the drug amount in the basolateral compartment at 4 h or 24 h was related to the drug amount in the apical compartment (0 h).
(§2) The detailed method for the analysis of DMDA, PatA, carbamazepine and famotidine using LC-MS/MS is described in the Supplementary Materials.

[8] = test system: Caco-2 cell barrier; assay: Transport assay, Caco-2 cell barrier; format: in vitro ADME
Method: as §1, §2

[9] = test system: M1 MdMs; design: method as in PMID 36982945; conditions: M1 MdMs ref 11; cited from earlier work
[10] = test system: B cells; assay: Energy metabolism (Seahorse OCR/ECAR) in B cells; format: cell-based, human; conditions: 5 days, PatA, DMDA 0.25-0.5 nM, silvestrol 5 nM, rapamycin 10 ng/mL
Method: (§3) The determination of the energy metabolism was performed as described previously. Briefly, for the analysis of the extracellular acidification rate (ECAR) and the oxygen consumption rate (OCR) for human B cells, Tcells, M1 MdMs and M2 MdMs, the Seahorse XFe96 FluxPak (Agilent, Waldbronn, Germany) was used as recommended by the manufacturer. MdMs were polarized to M1 or M2 MdMs in the presence of PatA (0.5, 2.5, 5 nM), DMDA (0.5, 2.5, 5 nM) or vehicle (DMSO) for 48 h or 24 h, respectively. T cells were activated in the presence of PatA (0.25, 0.5 nM), DMDA (0.25, 0.5 nM), silvestrol or DMSO. B cells were activated in the presence of PatA (0.25, 0.5 nM), DMDA (0.25, 0.5 nM), silvestrol (5 nM) or rapamycin (10 ng/mL positive control). Cells were washed with Seahorse XF RPMI medium pH 7.4 (Agilent, Waldbronn, Germany) and OCR and ECAR were measured as octuplicates for a period of 160 min using the Seahorse XFe96 Analyzer (Agilent, Waldbronn, Germany) and analyzed by Wave Software 2.6.3.8 (Agilent, Waldbronn, Germany). The relative values were calculated by relating the OCR or ECAR values obtained after 50 min to the values of the vehicle control (not stimulated).

[11] = test system: T cells; assay: Energy metabolism (Seahorse OCR/ECAR) in T cells; format: cell-based, human; conditions: 5 days, PatA, DMDA 0.25-0.5 nM, silvestrol 5 nM
Method: as §3

[12] = 4 and 24 h, PatA, DMDA 5, 50, 100 nM, controls 200 µM

Question: For `CONC(=O)[C@H]1[C@@H](O)[C@@]2(O)c3c(OC)cc(OC)cc3O[C@@]2(c2ccc(OC)cc2)[C@@H]1c1ccccc1` [CR31-B (-)], which “Effect on the release of inflammatory markers, T Cells” value (“Effect on the release … T Cells” below) [1] is on record?
Answer: The value was “IL-10↓, IL-17↓, IFN-γ↓”.

Question: And the “Effect on the release of inflammatory markers, M2 MdM” value (“Effect on the release … M2 MdM” for short) [2]?
Answer: The value was “TNF-α↑, CCL2↓, CCL17↓, CCL18↓,”.

Question: What about the “Effect on the release of inflammatory markers, M1 MdM” value (“Effect on the release … M1 MdM” for short) [3] of the same compound?
Answer: Its value is “IL-6↓, IL-8↓, CCL2↓, CCL18↓”.

Question: What about the “Effect on the release of inflammatory markers, B Cells” value (“Effect on the release … B Cells” for short) [4] of the same compound?
Answer: The value was “IgA↓, IgG↓”.

Question: With `COS(C)(=O)=O` [methylmethansulfonat (MMS), methylmethansulfonat, reference compound] as the compound, how does the “Genotoxic potential: micronuclei (clastogenic) and hypodiploid cells (aneugenic)” value [5] read?
Answer: Its value is “significant increase in micronuclei and hypodiploid cells”.

Question: Which “Effect on the release … T Cells” value [1] does the source give for `COc1cc2c(c(OC)n1)[C@]1(O)[C@H](O)[C@H](CN(C)C)[C@@H](c3ccccc3)[C@]1(c1ccc(C#N)cc1)O2` [Zotatifin, zotatifin] here?
Answer: Its value is “IL-10↓, IL-17↓, IFN-γ↓”.

Question: What about the “Effect on the release … M2 MdM” value [2] of the same compound?
Answer: The value was “IL-10↓, CCL18↓”.

Question: What about the “Effect on the release … M1 MdM” value [3] of the same compound?
Answer: The value was “No effect”.

Question: What about the “Effect on the release … B Cells” value [4] of the same compound?
Answer: Its value is “IgA↓, IgG↓”.

Question: What does the source list for `CO[C@H]1C[C@@H]2CC[C@@H](C)[C@@](O)(O2)C(=O)C(=O)N2CCCC[C@H]2C(=O)O[C@H]([C@H](C)C[C@@H]2CC[C@@H](O)[C@H](OC)C2)CC(=O)[C@H](C)/C=C(\C)[C@@H](O)[C@@H](OC)C(=O)[C@H](C)C[C@H](C)/C=C/C=C/C=C/1C` [rapamycin, reference compound]?
Answer: B cell activation (formation of plasma cells, proliferation, release of IgGs) [6]: prevented B cell activation; Cell viability (zombie staining) [6]: did not reduce cell viability

Question: Which “Permeability / transport rate across Calu-3 cell barrier (in words)” value [7, 12] does the source give for `NC(N)=Nc1nc(CSCCC(N)=NS(N)(=O)=O)cs1` [famotidine, reference compound] here?
Answer: Its value is “low permeability”.

Question: And the “Permeability / transport rate across Caco-2 cell barrier (in words)” value [8, 12]?
Answer: The value was “low permeability”.

Question: Which “Permeability / transport rate across Calu-3 cell barrier (in words)” value [7] does the source give for lucifer yellow [reference compound] here?
Answer: The value was “low permeability”.

Question: What about the “Permeability / transport rate across Caco-2 cell barrier (in words)” value ([8]; Caco-2) of the same compound?
Answer: Its value is “low permeability”.

Question: Which results are given for `NC(=O)N1c2ccccc2C=Cc2ccccc21` [carbamazepine, reference compound]?
Answer: Permeability / transport rate across Calu-3 cell barrier (in words) [7, 12]: high; Permeability / transport rate across Caco-2 cell barrier (in words) [8, 12]: high

Question: Which “Energy metabolism: glycolysis and oxidative phosphorylation” value [9] does the source give for `COC(=O)[C@H]1[C@@H](O)[C@@]2(O)c3c(OC)cc(O[C@@H]4O[C@@H]([C@H](O)CO)CO[C@H]4OC)cc3O[C@@]2(c2ccc(OC)cc2)[C@@H]1c1ccccc1` [Silvestrol, silvestrol] here?
Answer: The value was “reduced glycolysis and oxidative phosphorylation”.

Question: And the “Energy metabolism: glycolysis (ECAR) and oxidative phosphorylation (OCR)” value [10]?
Answer: The value was “increased glycolysis and oxidative phosphorylation”.

Question: And the “Effect on the release … T Cells” value [1]?
Answer: Its value is “IL-10↑, IFN-γ↑”.

Question: And the “Effect on the release … M2 MdM” value [2]?
Answer: The value was “IL-8↓, CCL2↓,”.

Question: And the “Energy metabolism: glycolysis (ECAR) and oxidative phosphorylation (OCR)” value [11]?
Answer: The value was “did not alter the energy metabolism”.

Question: What about the “Genotoxic potential: micronuclei (clastogenic) and hypodiploid cells (aneugenic)” value [5] of the same compound?
Answer: Its value is “showed no genotoxic effects”.

Question: And the “Effect on the release … M1 MdM” value [3]?
Answer: Its value is “IL-6↓, IL-8↓, CCL2↓, TNF-α↑”.

Question: And the “Effect on the release … B Cells” value [4]?
Answer: Its value is “IgA↓, IgG↓”.
